Experimental data taken from article PMC12322260, “Anticancer activity of triterpene glycosides from the sea star Solaster pacificus” (Scientific Reports, 2025).
Several values for one entry are separate records, joined by “and”; a condition that tells them apart may be missing. Equal values may be shown once.

Tests used:
[1] = target: P-glycoprotein (P-gp) in PC3-DR cells (Homo sapiens, UniProt P08183); assay: P-gp activity, calcein-AM assay; settings: 30 min
Description: A major contributor to docetaxel resistance is P-glycoprotein (also known as P-gp, MDR1), known to be overexpressed in PC3-DR cells. P-glycoprotein is a molecular efflux pump that actively expels various xenobiotic agents, including docetaxel, from cancer cells. Increased P-gp expression correlates with an increased IC50 for docetaxel, signifying enhanced drug resistance. […] In this assay, the non-fluorescent calcein-AM passively diffuses into cells, where it is hydrolyzed by cellular esterases into fluorescent calcein. Both calcein and its precursor are P-gp substrates and are actively transported out of P-gp-highly expressing cells (e.g. PC3-DR cells), which results in reduced intracellular fluorescence. P-gp inhibitors, such as tariquidar, block P-gp function, leading to calcein accumulation and an increase in fluorescence, which therefore can be used as a reliable indicator of reduced P-gp activity. A similar fluorescence increase is observed in the presence of docetaxel due to its competitive binding to the P-gp transporter alongside calcein[38].
Number of biological replicates n = 3. […] Number of biological replicates n = 3.
The evaluation of the activity of P-glycoprotein (P-gp) was performed using calcein-AM assay as described previously. […] The plates were incubated for 15 min, and the green calcein fluorescence was recorded using an Infinite F200PRO plate reader (TECAN). […]

[2] = test system: 22Rv1 cells; assay: Western blotting of apoptotic markers; type: cell-based, human
Description: Fig. 3 Functional kinome profiling of STKs (serine/threonine kinases) in 22Rv1 cells and validation of results. (a) Expression of apoptotic markers. The cells were treated with CuC1 for the indicated time, and the expression of proteins was analyzed by Western blotting. (b, c) Functional kinome profiling. A heatmap displaying log2-transformed phosphorylation levels of 99 analyzed STK substrate peptides (b) and upstream kinase analysis, which predicted kinases affected by CuC1 (c). Values of the normalized kinase statistics represented by bars, where log2 < 0 indicates decreased kinase activity and log2 > 0 denotes increased activity. […] 22Rv1 cells were treated with CuC1 for 2 h and the MAPK expression was analyzed by Western blotting. β-actin was used as a loading control. The band intensity of the protein of interest was quantified using Image Lab software and normalized to the band intensity β-actin (a), or to the band intensity of non-phospho MAPK (d), and is indicated by red numbers. […]
Western blotting was performed as previously described. […] Proteins were transferred on a PVDF membrane and detected using specified primary and secondary antibodies. The protein signals were visualized and detected using the ECL chemiluminescence system (Thermo Scientific, Rockford, IL, USA). […] The signal (band) intensity was quantified using Image Lab v. […]

[3] = test system: 22Rv1 cells; assay: Drug combination MTT assay, SynergyFinder ZIP analysis; type: cell-based, human; settings: 22Rv1, 48 h
Description: (§1) Fig. 5 Effects of CuC1 in combination with taxanes and platinum agents. PC3-DR and 22Rv1 cells were co-treated with cisplatin (Cis), carboplatin (Carbo), docetaxel (Doce), or cabazitaxel (Caba) in combination with CuC1 at the indicated concentrations for 48 h. Cellular viability was evaluated using the MTT assay (number of biological replicates n = 3.) and is represented in the Supplementary Table S2. The cytotoxic effects were further analyzed, and 3D heat maps were constructed using SynergyFinder 3.0 software. The drug effects in combination (synergistic, additive, or antagonistic) were analyzed and visualized using the ZIP algorithm and are indicated by δ-score. δ > 10: Synergistic interactions (dark red area); […]: additive effect; δ < − 10: Antagonistic interactions (dark green area). A ZIP synergy score represents a mean δ overall the concentration range used.
(§2) The effect of combinational treatment with established chemotherapies was evaluated as previously reported^54. In brief, cells were exposed to individual drugs of their combinations for 48 h, and the viability was measured by MTT assay and was then analyzed using SynergyFinder 3.0 software (https://synergyfinder.fimm.fi) and the ZIP score algorithm. Statistical analysis was conducted automatically by the software using its inbuilt algorythms based on the input data type and size.

[4] = test system: PC3-DR cells; assay: as above; type: cell-based, human; settings: 48 h
Description: as §1, §2

[5] = test system: PC3-DR cells; assay: cells; settings: Homo sapiens, 48 h
Description: Viability was evaluated using MTT assay, and IC50s were calculated using GraphPad Prism software. Number of biological replicates n = 3. […] Cells (6 × 10^3 cells/well in 100 μL/well of media) were plated in 96-well plates. The plates were incubated overnight, and the medium was replaced with fresh medium containing drugs at the indicated concentrations. The plates were further incubated for 48 h, unless otherwise stated, the solution of MTT reagent in PBS was added to each well, and cells were incubated for another 2–4 h to form formazan crystals. Then the media was removed and the plates were dried overnight. 50 μL of DMSO was added to each well to dissolve the formazan crystals. The absorbance of each well was measured using an Infinite F200PRO reader (TECAN, Männedorf, Switzerland). The cell viability was estimated as an inhibition concentration (IC50), which was calculated using GraphPad Prism software v.9.1.1 (GraphPad Software, San Diego, CA, USA). IC₅₀ values were determined by fitting the data to a nonlinear regression model (log[inhibitor] versus normalized response—variable slope).

P-glycoprotein (P-gp) in PC3-DR cells, sequence (P08183 whole entry): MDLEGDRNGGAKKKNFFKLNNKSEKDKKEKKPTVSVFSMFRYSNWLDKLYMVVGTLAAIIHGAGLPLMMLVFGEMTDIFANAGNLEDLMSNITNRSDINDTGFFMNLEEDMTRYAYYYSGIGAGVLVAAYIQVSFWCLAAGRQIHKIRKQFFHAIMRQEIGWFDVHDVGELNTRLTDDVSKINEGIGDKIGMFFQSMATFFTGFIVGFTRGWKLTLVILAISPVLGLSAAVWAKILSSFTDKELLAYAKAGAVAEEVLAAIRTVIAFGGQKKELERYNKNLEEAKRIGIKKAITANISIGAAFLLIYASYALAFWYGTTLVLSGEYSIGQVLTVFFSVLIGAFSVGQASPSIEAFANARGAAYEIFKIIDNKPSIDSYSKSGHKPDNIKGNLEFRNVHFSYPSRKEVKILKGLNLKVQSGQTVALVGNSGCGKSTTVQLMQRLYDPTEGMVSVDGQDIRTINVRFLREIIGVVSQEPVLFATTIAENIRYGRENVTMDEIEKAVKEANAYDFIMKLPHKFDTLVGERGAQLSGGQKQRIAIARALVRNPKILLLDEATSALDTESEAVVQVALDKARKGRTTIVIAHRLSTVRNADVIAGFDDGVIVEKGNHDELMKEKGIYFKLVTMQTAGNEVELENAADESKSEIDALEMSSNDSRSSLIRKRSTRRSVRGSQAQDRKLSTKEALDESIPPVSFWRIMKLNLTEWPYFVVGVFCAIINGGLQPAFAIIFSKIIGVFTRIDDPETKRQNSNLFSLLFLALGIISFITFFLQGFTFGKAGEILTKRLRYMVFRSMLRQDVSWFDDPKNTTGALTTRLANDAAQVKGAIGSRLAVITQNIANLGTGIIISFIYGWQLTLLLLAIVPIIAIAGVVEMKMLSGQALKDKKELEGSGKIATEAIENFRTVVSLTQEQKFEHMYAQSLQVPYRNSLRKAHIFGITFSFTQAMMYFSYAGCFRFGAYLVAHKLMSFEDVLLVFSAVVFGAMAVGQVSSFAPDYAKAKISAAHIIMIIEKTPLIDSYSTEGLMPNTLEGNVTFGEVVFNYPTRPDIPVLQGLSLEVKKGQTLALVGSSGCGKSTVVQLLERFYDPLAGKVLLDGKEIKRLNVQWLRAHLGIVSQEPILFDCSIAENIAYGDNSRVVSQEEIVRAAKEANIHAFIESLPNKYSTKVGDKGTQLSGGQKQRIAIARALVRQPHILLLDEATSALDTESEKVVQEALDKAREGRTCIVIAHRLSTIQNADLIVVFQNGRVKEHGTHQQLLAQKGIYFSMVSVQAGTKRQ

CO[C@@H]1[C@@H](O)[C@H](O[C@@H]2[C@@H](O)[C@H](O[C@H]3[C@H](O)[C@@H](O[C@@H]4OC[C@@H](O)[C@H](O)[C@H]4O)[C@H](O[C@H]4[C@H](O[C@H]5CC[C@]6(C)[C@@H]7CCC89C(=O)O[C@@](C)(/C=C\C=C(C)C)[C@H]8[C@@H](OC(C)=O)C[C@@]9(C)C7=CC[C@H]6C5(C)C)OC[C@@H](O)[C@@H]4O)O[C@@H]3C)O[C@H](CO)[C@H]2O)OC[C@H]1O (some centres unmarked) [CuC1, cucumarioside C1]
P-gp activity (calcein-AM efflux) ([1]; glycosides at non-cytotoxic concentrations, controls TQD 50 nM, Doce 100 nM): did not result in any significant changes in calcein-AM efflux
intracellular calcein fluorescence ([1]; high cytotoxic concentrations): increase of intracellular fluorescence
signs of cell death (apoptotic markers) ([2]; 22Rv1, 0.5 μM, 2 h): did not induce any signs of cell death
apoptotic markers ([2]; 22Rv1, 24 h of treatment): apoptotic markers such as cleaved PARP and caspase-3 were detected
Response (% of effect) ([3]; CuC1 0.25 μM alone): 31.1% and 43.16% and 29.95% and 34.58% and 29.34% and 26.82% and 33.12% and 30.57%
Response (% of effect) ([3]; CuC1 0.5 μM alone): 81.71% and 82.23% and 73.42% and 77.37% and 76.17% and 72.77% and 72.16% and 76.9194%
Response (% of effect) ([3]; CuC1 1 μM alone): 95.8597% and 95.08% and 89.09% and 94.3% and 94.37% and 95.8% and 97.07% and 93.71%
Response (% of effect) ([4]; CuC1 1 μM alone): 33.69% and 25.1% and 26.58% and 38.2% and 34.475% and 30.33% and 41.47% and 24.44%
Response (% of effect) ([4]; CuC1 2 μM alone): 61.45% and 55.31% and 54.31% and 72.9% and 63.58% and 68.91% and 61.135% and 65.14%
Response (% of effect) ([4]; CuC1 4 μM alone): 90.21% and 89.15% and 83.68% and 93.87% and 94.47% and 92.06% and 92.89% and 96.86%
IC50 [5]: 5.69 ± 0.33 µM
